≈ marks a conversion by molar mass, not a printed value. Calls of active or inactive are those of the source. No cut-off for these calls is given here.
Assays:
Escherichia coli [1] = experiment: Antibacterial activity against Escherichia coli ATCC 25922 after 24 hrs by broth microdilution method; format: functional; conditions: ATCC 25922, 24 h
Staphylococcus aureus [2] = experiment: Antibacterial activity against Staphylococcus aureus ATCC 25923 after 24 hrs by broth microdilution method; format: functional; conditions: ATCC 25923, 24 h
[3] = test system: Staphylococcus epidermidis; experiment: Antibacterial activity against Staphylococcus epidermidis ATCC 12228 after 24 hrs by broth microdilution method; format: functional; conditions: ATCC 12228, 24 h
[4] = test system: Mycolicibacterium smegmatis; experiment: Antibacterial activity against Mycobacterium smegmatis MC2 155 ATCC […] after 24 hrs by broth microdilution method; format: functional
Peritoneal macrophage = experiment: Anti-inflammatory activity in C57BL6J mouse peritoneal macrophages assessed as inhibition of LPS-induced TNF-alpha secretion at 10 uM after 24 hrs; format: functional, cell-based
[5] = molecular target: T1, Tyrosine-protein phosphatase non-receptor type 1 (Homo sapiens) (UniProt P18031); experiment: Inhibition of recombinant human GST-tagged PTP1B at 10 uM using p-NPP as substrate after 10 mins by spectrophotometric method
T1 sequence (whole entry): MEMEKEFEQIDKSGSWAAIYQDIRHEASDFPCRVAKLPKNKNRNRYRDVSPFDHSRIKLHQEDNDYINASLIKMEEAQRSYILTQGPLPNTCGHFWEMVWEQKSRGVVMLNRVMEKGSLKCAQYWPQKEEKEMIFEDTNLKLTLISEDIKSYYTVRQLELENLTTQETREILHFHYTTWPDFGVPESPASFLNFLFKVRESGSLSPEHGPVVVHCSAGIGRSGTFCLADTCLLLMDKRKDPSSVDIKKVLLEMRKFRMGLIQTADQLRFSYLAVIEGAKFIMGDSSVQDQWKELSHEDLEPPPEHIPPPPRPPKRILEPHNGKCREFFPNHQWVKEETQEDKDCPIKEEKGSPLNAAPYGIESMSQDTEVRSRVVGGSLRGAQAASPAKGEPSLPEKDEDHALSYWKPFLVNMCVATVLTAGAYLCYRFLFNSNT

HepG2 = experiment: Protection against acetaminophen-induced cell injury in human HepG2 cells at 10 uM after 24 hrs by MTT assay; format: functional, cell-based
HCT-8 = experiment: Cytotoxicity against human HCT8 cells after 24 hrs by MTT assay; format: functional, cell-based
A2780 = experiment: Cytotoxicity against human A2780 cells after 24 hrs by MTT assay; format: functional, cell-based
BGC-823 = experiment: Cytotoxicity against human BGC823 cells after 24 hrs by MTT assay; format: functional, cell-based
Bel-7402 = experiment: Cytotoxicity against human Bel7402 cells after 24 hrs by MTT assay; format: functional, cell-based
A549 = experiment: Cytotoxicity against human A549 cells after 24 hrs by MTT assay; format: functional, cell-based
Liver carboxylesterase 1 = molecular target: T2, Liver carboxylesterase 1 (Homo sapiens, UniProt P23141); experiment: Inhibition of CE1 in human liver microsomes using D-Luciferin methyl ester as substrate preincubated for 10 mins followed by substrate addition measured after 10 mins by luminescence assay
T2 sequence (P23141 whole entry): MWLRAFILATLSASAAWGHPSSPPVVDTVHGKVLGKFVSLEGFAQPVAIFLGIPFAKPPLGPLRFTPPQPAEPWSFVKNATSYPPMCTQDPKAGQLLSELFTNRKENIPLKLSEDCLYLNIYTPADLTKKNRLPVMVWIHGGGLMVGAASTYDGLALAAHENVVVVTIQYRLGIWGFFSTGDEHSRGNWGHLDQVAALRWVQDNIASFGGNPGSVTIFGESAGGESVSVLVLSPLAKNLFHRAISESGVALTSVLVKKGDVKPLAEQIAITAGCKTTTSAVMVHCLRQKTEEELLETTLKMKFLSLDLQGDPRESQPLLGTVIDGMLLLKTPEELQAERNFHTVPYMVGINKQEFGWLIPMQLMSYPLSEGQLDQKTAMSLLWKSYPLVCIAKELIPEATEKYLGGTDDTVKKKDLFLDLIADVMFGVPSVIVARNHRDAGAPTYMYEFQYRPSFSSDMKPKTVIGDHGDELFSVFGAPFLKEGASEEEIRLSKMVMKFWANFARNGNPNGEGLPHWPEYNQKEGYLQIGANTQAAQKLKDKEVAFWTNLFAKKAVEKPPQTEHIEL

Cocaine esterase [6] = molecular target: T3, Cocaine esterase (Homo sapiens, UniProt O00748); experiment: Inhibition of CE2 in human liver microsomes using fluorescein diacetate as substrate preincubated for 10 mins followed by substrate addition measured after 20 mins by […] assay
T3 sequence (O00748 whole entry): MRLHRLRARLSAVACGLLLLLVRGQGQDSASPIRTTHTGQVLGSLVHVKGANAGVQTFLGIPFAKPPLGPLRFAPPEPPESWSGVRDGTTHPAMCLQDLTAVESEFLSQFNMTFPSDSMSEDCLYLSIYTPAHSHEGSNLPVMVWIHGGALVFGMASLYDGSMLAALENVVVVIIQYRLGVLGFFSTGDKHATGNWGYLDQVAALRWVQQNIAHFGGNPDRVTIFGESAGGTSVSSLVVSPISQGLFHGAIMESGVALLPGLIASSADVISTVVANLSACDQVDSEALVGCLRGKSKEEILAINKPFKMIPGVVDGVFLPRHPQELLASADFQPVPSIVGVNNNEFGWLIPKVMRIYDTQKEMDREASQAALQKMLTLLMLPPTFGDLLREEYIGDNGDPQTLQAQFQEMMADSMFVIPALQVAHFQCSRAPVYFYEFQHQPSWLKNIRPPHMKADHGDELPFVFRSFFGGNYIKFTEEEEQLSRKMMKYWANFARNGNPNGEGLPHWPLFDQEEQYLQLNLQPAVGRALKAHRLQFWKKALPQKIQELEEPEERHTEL

Homo sapiens = species: Homo sapiens; experiment: Selectivity ratio of IC50 for inhibition of CE1 in human liver microsomes to IC50 for inhibition of CE2 in human liver microsomes
Escherichia coli [7] = experiment: Antibacterial activity against Escherichia coli ATCC 25922 at 30 ug/disk; format: functional
Staphylococcus aureus [8] = experiment: Antibacterial activity against Staphylococcus aureus ATCC 25923 at 30 ug/disk; format: functional
Candida albicans = experiment: Anti-fungal activity against Candida albicans at 30 ug/disk; format: functional
[9] = molecular target: T4, CE2 (carboxylesterase 2; cocaine esterase) (Homo sapiens, UniProt O00748); experiment: Potency index, ratio of loperamide IC50 to compound IC50 for inhibition of CE2 in human liver microsomes; conditions: read-out: Ratio IC50
T4 sequence (O00748 whole entry): T3 sequence (O00748 whole entry)

Cocaine esterase [10] = molecular target: T3, Cocaine esterase; experiment: Reversible inhibition of CE2 in human liver microsomes up to 120 uM using fluorescein diacetate as substrate preincubated for 10 mins followed by substrate addition measured after 20 mins by […] assay
Cocaine esterase [11] = molecular target: T3, Cocaine esterase; experiment: Competitive inhibition of CE2 in human liver microsomes using fluorescein diacetate as substrate preincubated for 10 mins followed by substrate addition measured after 20 mins by Lineweaver-Burk plot analysis

Compound: CCCCCCC/C=C1\OC(=O)c2c(O)cccc21
- MIC (Escherichia coli [1]): > 128 µg/mL
- MIC (Staphylococcus aureus [2]): > 128 µg/mL
- MIC [3]: > 128 µg/mL
- MIC [4]: > 128 µg/mL
- inhibition (Peritoneal macrophage): inactive
- inhibition [5]: inactive
- Activity (HepG2): inactive
- Activity (HCT-8): inactive
- Activity (A2780): inactive
- Activity (BGC-823): inactive
- Activity (Bel-7402): inactive
- Activity (A549): inactive

Compound: C[C@H]1COc2c(N3CCN(C)CC3)c(F)cc3c(=O)c(C(=O)O)cn1c23.C[C@H]1COc2c(N3CCN(C)CC3)c(F)cc3c(=O)c(C(=O)O)cn1c23.O [LEVOFLOXACIN]
- MIC (Staphylococcus aureus [2]): 0.12 µg/mL

Compound: O=[N+]([O-])c1ccc(OP(=O)(O)Oc2ccc([N+](=O)[O-])cc2)cc1
- IC50 (Liver carboxylesterase 1): 210 nM

Compound: CCCCCCCC[C@@H]1OC(=O)c2c(O)cccc21 [PAECILOCIN A]
- IC50 (Liver carboxylesterase 1): > 100000 nM
- IC50 (Cocaine esterase [6]): 23300 nM
- Ratio IC50 (Homo sapiens): > 4.29
- inhibition (Peritoneal macrophage): inactive
- inhibition [5]: inactive
- Activity (HepG2): inactive
- Activity (HCT-8): inactive
- Activity (A2780): inactive
- Activity (BGC-823): inactive
- Activity (Bel-7402): inactive
- Activity (A549): inactive

Compound: CCCCCCCCCc1cccc(O)c1C=O
- MIC (Escherichia coli [1]): 32 µg/mL (≈ 129 µM)
- MIC (Staphylococcus aureus [2]): 64 µg/mL (≈ 258 µM)
- inhibition (Peritoneal macrophage): inactive
- inhibition [5]: inactive
- Activity (HepG2): inactive
- Activity (HCT-8): inactive
- Activity (A2780): inactive
- Activity (BGC-823): inactive
- Activity (Bel-7402): inactive
- Activity (A549): inactive

Compound: C[C@@H]1[C@H](O)[C@@H](C)/C=C/C=C/C=C/C=C/C=C/C=C/C=C/[C@H](O[C@@H]2O[C@H](C)[C@@H](O)[C@H](N)[C@@H]2O)C[C@@H]2O[C@](O)(C[C@@H](O)C[C@@H](O)[C@H](O)CC[C@@H](O)C[C@@H](O)CC(=O)O[C@H]1C)C[C@H](O)[C@H]2C(=O)O [AMPHOTERICIN B]
- diameter of the inhibition zone (DIZ) (Escherichia coli [7]): inactive
- diameter of the inhibition zone (DIZ) (Staphylococcus aureus [8]): inactive
- zone of inhibition at 30 µg/disc (Candida albicans; read-out: DIZ): > 20 mm

Compound: CCCCCCCCC(=O)c1cccc(O)c1-c1cc2c(C(=O)CCCCCCCC)cccc2o1
- MIC (Escherichia coli [1]): > 128 µg/mL
- MIC (Staphylococcus aureus [2]): > 128 µg/mL
- MIC [3]: > 128 µg/mL
- MIC [4]: > 128 µg/mL
- IC50 (Liver carboxylesterase 1): > 100000 nM
- IC50 (Cocaine esterase [6]): 2010 nM
- Ratio IC50 (Homo sapiens): > 49.8
- selectivity ratio [9]: 2
- inhibition (INH) (Cocaine esterase [10]): Active
- Ki (Cocaine esterase [11]): 2340 nM
- inhibition (Peritoneal macrophage): inactive
- inhibition [5]: inactive
- Activity (HepG2): inactive
- Activity (HCT-8): inactive
- Activity (A2780): inactive
- Activity (BGC-823): inactive
- Activity (Bel-7402): inactive
- Activity (A549): inactive

Compound: CC1(C)S[C@@H]2[C@H](NC(=O)[C@H](N)c3ccccc3)C(=O)N2[C@H]1C(=O)O [AMPICILLIN]
- zone of inhibition at 30 µg/disc (Escherichia coli [7]; read-out: DIZ): 16 to 20 mm
- zone of inhibition at 30 µg/disc (Staphylococcus aureus [8]; read-out: DIZ): > 20 mm
- diameter of the inhibition zone (DIZ) (Candida albicans): inactive

Reference: ChEMBL document CHEMBL4145491, “Bysspectin A, an unusual octaketide dimer and the precursor derivatives from the endophytic fungus Byssochlamys spectabilis IMM0002 and their biological activities” (Eur J Med Chem, 2018)
